What is called EC50 is the concentration giving half of the maximal effect. One may read the IC50 as the concentration that inhibits the measured activity by half.

Structures are written as SMILES. Calls of active or inactive are those of the source.

Data on 1 compound can be found in ChEMBL document CHEMBL1201862, “PubChem BioAssay data set” (2004).

The test system of test [1] is BJ. Kind of test: BJ-TERT fibroblast viability loss – cell-based, RAS-independent, luminescence, dose response (AID 1933). The settings on record: Homo sapiens. It counts as functional.
Test [2] has as its system BJ. Kind of test: BJ-TERT-LT-ST fibroblast viability loss – cell-based, RAS-independent, luminescence, dose response (AID 1935).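 Also: BJ fibroblasts immortalized with TERT plus LT and ST oncogenes.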 The settings on record: Homo sapiens. Type of test: functional.
For test [3], the target named is T1, Ubiquitin-conjugating enzyme E2 N (Homo sapiens, UniProt P61088).
T1 sequence (P61088 whole entry): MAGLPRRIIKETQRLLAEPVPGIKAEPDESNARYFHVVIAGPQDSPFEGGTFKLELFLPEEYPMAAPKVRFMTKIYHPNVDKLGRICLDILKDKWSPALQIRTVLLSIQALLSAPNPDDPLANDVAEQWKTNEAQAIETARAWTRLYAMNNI
Type of test: functional.

For test [4], the system named is BJ. Description: cells. Type of test: functional, cell-based. To be noted: Homo sapiens.
Test [5] has as its target T1, Ubiquitin-conjugating enzyme E2 N. It counts as functional. The source holds these as a separate data set.
Test [6] deals with T2, Bcl-2-related protein A1 (Mus musculus, UniProt Q07440).
T2 sequence (Q07440 whole entry): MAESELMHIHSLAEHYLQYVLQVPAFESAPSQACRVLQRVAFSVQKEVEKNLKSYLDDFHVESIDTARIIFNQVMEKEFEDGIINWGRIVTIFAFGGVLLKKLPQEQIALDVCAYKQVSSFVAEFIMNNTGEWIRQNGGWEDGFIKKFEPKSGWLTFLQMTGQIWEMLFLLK
It counts as functional.

Test [7] in a line: DRD fibroblast viability loss – cell-based, non-viral oncogenic, luminescence, dose response (AID 1934). It counts as functional. The settings on record: Homo sapiens.
For test [8], the target named is T3, Type-1 angiotensin II receptor (Homo sapiens, UniProt P30556).
T3 sequence (P30556 whole entry): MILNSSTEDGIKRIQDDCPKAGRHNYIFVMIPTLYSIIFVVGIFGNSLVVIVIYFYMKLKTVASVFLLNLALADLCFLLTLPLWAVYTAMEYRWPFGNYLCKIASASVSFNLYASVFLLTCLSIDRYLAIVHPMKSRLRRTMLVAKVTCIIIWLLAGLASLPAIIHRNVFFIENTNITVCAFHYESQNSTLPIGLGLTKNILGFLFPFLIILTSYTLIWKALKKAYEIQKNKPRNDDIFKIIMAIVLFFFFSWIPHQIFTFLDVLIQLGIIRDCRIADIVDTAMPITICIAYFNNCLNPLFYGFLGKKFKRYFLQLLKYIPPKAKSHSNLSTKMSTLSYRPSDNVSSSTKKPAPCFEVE
Kind of test: agonist activity at AGTR1 – cell-based, uHTS hits, selectivity assay for APJ receptor agonist project, dose response (AID 488865).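 Also: beta-arrestin recruitment to AT1 measured by enzyme fragment complementation luminescence.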 Type of test: functional.

In the case of `Cc1cc(C)c2sc(N(CCCN(C)C)C(=O)c3ccc(S(=O)(=O)N4CCc5ccccc5C4)cc3)nc2c1`, the EC50 was 1.57 µM (active) in test [1]; 2.54 µM (inconclusive) in test [2]; 9.56 µM (active) in test [4]; 3.68 µM (active) in test [7]; > 100 µM (inactive) in test [8]. The results for the IC50 in test [3], in test [5] and in test [6] were 4.64 µM (active), 10 µM (active) and > 20 µM (inactive), respectively.
